Reference: patent US20100210564A1, “DRUG OR FOOD CONTAINING A PEPTIDE” (Kyoto University, priority 2009, published 2010)
Entries after “also recorded” stand apart in the source; their conditions may differ.

Legend:
mice [1] = experiment: Elevated plus-maze test, anxiolytic effects; format: in vivo, mouse; conditions: for Minimum Effective Dose (mg/kg, i.p.): elevated plus-maze, ( ) = showed tendency, — = no anxiolytic effects
Experimental: In the present invention, the anxiolytic effects can be evaluated by the elevated plus-maze test, developed and widely used as a method for evaluating anxiety-related behaviors to screen anxiolytic drugs (FIG. 1). Specifically, the test is performed as follows: a candidate substance for an anxiolytic drug is orally or intraperitoneally administered to a mouse; 30 minutes after the administration, the mouse is placed in an elevated plus-maze; and the potency of the anxiolytic effects is evaluated based on the number of entries to the open arms and a change in the times spent on the open arms.
(§1) The elevated plus-maze (EPM) consisted of two open arms (25×5 cm) and two closed arms (25×5×15 cm), which were joined to a central platform 50 cm high above the floor (see FIG. 1). Because the closed arms were surrounded by fences, a mouse could safely walk in the closed arms irrespective of their elevated position. On the other hand, because the open arms were not surrounded by fences, a mouse walking along the open arms would feel anxious that it might fall down from the elevated position. Therefore, the more time the mouse spent in the open arms, or the greater the number of entries to the open arms, the less anxious the mouse was feeling; thus, the anxiolytic activity was determined based on these indices.
(§2) A mouse was placed on a portion of the central platform facing one of the open arms, and the test was started. During a test time of 5 minutes, the cumulative time spent in the open arms (abbr.: time in open arms), the number of visits to the open arms (abbr.: visit to open arms), and the total number of visits to any of the arms (abbr.: total visits) were recorded. The percentage of the time spent in the open arms and the percentage of the number of visits to the open arms were calculated as indices of anxiety.
The data obtained from the elevated plus-maze test were represented as the means±SEM. The data were analyzed by 1-way or 2-way ANOVA, followed by the Fisher test for multiple comparisons.
(§3) Each of YL (Example 1 and Comparative Example 3), FL (Example 2), YI (Example 3), FI (Example 4), LY (Example 5), LF (Example 6), IY (Example 7), IF (Example 8), YLY (Example 9), YLQ (Example 10), LYL (Example 11), YLYEIAR (Example 12), YV (Example 13), WL (Example 14), LW (Example 15), HL (Example 16), Y (Comparative Example 1), and Y, L (Comparative Example 2) dissolved in physiological saline was administered intraperitoneally (i.p.) or orally (p.o.) to mice (n=3 to 14) in the amounts shown in each figure before the mice were placed in the elevated plus-maze. The percentage of the time spent in the open arms, the percentage of the number of visits to the open arms, and the total number of visits to the arms (total visits) were compared among groups administered each peptide or amino acid, and a control group (0 mg/kg). YL was investigated for its anxiolytic effects by the open-field test. The results are shown in FIGS. 2 to 14, FIGS. 22 to 27, and Table 3.

mice [2] = experiment: Elevated plus-maze test, YL in combination with antagonists for various receptors; format: in vivo, mouse; conditions: in words
From the text: as §1, §2

mice [3] = experiment: Open-field test; format: in vivo, mouse
Experimental: The open-field used in this experiment was a cylindrical gray apparatus with a diameter of 60 cm and a height of 50 cm, which is divided into 25 sections with black lines. […] However, once a mouse is administered an anxiolytic drug, the time spent in the circle at the center and the number of entries thereto increase.
as §3

ACE = ACE (Homo sapiens, UniProt P12821); experiment: ACE inhibitory effects; format: biochemical; conditions: comparison of YL with IY
ACE, sequence (P12821 30-1306, species assumed): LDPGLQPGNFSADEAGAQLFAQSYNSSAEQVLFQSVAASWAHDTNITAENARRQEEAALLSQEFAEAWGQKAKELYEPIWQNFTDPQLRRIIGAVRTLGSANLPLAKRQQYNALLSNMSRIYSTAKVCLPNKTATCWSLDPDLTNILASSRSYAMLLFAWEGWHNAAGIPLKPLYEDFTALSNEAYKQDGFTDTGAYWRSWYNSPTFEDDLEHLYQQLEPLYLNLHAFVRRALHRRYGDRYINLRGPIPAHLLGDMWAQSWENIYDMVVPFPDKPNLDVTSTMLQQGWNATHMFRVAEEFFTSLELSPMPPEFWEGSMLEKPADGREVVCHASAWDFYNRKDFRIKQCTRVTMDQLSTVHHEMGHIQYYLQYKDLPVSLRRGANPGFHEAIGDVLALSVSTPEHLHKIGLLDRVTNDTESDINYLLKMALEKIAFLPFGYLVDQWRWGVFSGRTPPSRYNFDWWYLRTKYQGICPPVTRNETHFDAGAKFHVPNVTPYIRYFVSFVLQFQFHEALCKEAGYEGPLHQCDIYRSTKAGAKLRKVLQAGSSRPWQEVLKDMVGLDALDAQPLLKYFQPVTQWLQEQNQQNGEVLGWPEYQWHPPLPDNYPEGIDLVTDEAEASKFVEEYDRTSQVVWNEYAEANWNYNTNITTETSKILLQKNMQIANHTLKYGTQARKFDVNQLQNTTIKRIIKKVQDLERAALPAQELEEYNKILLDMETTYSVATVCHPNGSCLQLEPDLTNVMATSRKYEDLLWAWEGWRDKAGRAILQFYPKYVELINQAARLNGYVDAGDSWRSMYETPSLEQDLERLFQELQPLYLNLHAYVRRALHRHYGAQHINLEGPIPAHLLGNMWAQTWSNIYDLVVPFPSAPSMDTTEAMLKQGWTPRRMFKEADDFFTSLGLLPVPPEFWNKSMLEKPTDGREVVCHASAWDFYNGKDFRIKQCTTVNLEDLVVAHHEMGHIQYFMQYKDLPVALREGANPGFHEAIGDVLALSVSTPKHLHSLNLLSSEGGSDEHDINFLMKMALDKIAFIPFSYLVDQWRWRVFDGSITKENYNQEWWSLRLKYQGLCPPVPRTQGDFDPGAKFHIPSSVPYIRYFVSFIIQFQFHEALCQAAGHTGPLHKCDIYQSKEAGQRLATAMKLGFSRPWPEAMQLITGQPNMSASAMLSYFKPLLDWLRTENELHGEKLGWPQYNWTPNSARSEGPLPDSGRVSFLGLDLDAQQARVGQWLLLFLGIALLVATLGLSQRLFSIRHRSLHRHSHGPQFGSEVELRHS

[4] = 0.1 mg/kg, i.p., mean ± SEM (n = 6), p < 0.05 vs cont.

| Compound | effect of the antagonist/inhibitor on the anxiolytic effects of the peptides of the invention (mice [2]) | Minimum Effective Dose (mg/kg, i.p.) (mice [1]) [mg/kg] | also measured |
| --- | --- | --- | --- |
| N[C@@H](Cc1ccc(O)cc1)C(=O)O [Y, Tyr, reference compound] |  |  | anxiolytic effects in the elevated plus-maze experiment (in words) (mice [1]): no anxiolytic effects |
| Oc1ccc2c3c1O[C@H]1c4[nH]c5ccccc5c4C[C@@]4(O)[C@@H](C2)N(CC2CC2)CC[C@]314 [naltrindole] | not blocked |  |  |
| CCOC(=O)c1ncn2c1CN(C)C(=O)c1cc(F)ccc1-2 [flumazenil] | significantly blocked |  |  |
| COc1ccc2c(c1)c(CC(=O)O)c(C)n2C(=O)c1ccc(Cl)cc1 [indomethacin] | not blocked |  |  |
| OC(CCCN1CCN(c2ncc(F)cn2)CC1)c1ccc(F)cc1 (stereo not shown) [BMY14802] | not blocked |  |  |
| C=CCN1CC[C@]23c4c5ccc(O)c4O[C@H]2C(=O)CC[C@@]3(O)[C@H]1C5 [naloxone] | not blocked |  |  |
| CC(C)C[C@H](N)C(=O)O [L, Leu, reference compound] |  |  | anxiolytic effects in the elevated plus-maze experiment (in words) (mice [1]): no anxiolytic effects |
| Ile-Tyr [IY] |  | 10 |  |
| YLYEIAR [peptide; Y Tyr, L Leu, E Glu, I Ile, A Ala, R Arg] |  | 0.3 |  |
| Tyr-Leu [YL] |  | 0.1 | anxiolytic effects in the elevated plus-maze experiment (in words) (mice [1]): stronger anxiolytic effects; also recorded: at least equivalent to those of diazepam; Time in Center Circle (%) (mice [3]; [4]): 2.06 ± 0.234 %; Visits to Center Circle (%) (mice [3]; [4]): 3.02 ± 0.404 %; efficacy in the open-field test (in words) (mice [3]; mice): demonstrated its efficacy; ACE inhibitory effects (ACE): weaker than those of IY |
| COc1ccccc1N1CCN(CC(C(=O)NC(C)(C)C)c2ccccc2)CC1 (stereo not shown) [WAY100135] | blocked |  |  |
| His-Leu [HL] |  | 0.1 |  |
| Phe-Leu [FL] |  | 0.1 |  |
| Trp-Leu [WL] |  | 0.1 |  |
